Experimental data published in PubChem BioAssay AID248 (DTP/NCI, 2004).
Where “and” joins values, the source holds several entries; their conditions need not be identical. Equal values may be shown once. Toxic doses and inconclusive results are not listed. No stated cut-off is given here; in the data, active means T/C of 150% or more; inactive means T/C below 125%.

Tested on: L1210 leukemia ip in BDF1 mice, survival T/C
Experiment: NCI In Vivo Anticancer Drug Screen. Data for tumor model L1210 Leukemia (intraperitoneal) in B6D2F1 (BDF1) mice
Details: endpoint: mean survival time, higher = longer survival
In short: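 Transplanted-tumor mice were given test agent; controls received vehicle only. Survival readings from the two groups were divided (treated over control).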

[1] = dose: 100.0 mg/kg/injection, schedule: Q01DX009 (ip), vehicle: saline sonified
[2] = dose: 100.0 mg/kg/injection, schedule: Q04DX003 (ip), vehicle: Klucel (hydroxypropylcellulose) (HPC)
[3] = dose: 200.0 mg/kg/injection, schedule: Q01DX009 (ip), vehicle: saline sonified
[4] = dose: 200.0 mg/kg/injection, schedule: Q04DX003 (ip), vehicle: Klucel (hydroxypropylcellulose) (HPC)
[5] = dose: 400.0 mg/kg/injection, schedule: Q01DX009 (ip), vehicle: saline sonified
[6] = dose: 400.0 mg/kg/injection, schedule: Q04DX003 (ip), vehicle: Klucel (hydroxypropylcellulose) (HPC)
[7] = dose: 100.0 mg/kg/injection, schedule: Q04DX003 (ip), vehicle: saline
[8] = dose: 200.0 mg/kg/injection, schedule: Q04DX003 (ip), vehicle: saline
[9] = dose: 400.0 mg/kg/injection, schedule: Q04DX003 (ip), vehicle: saline
[10] = dose: 100.0 mg/kg/injection, schedule: Q04DX002 (ip), vehicle: Klucel (hydroxypropylcellulose) (HPC)
[11] = dose: 200.0 mg/kg/injection, schedule: Q04DX002 (ip), vehicle: Klucel (hydroxypropylcellulose) (HPC)
[12] = dose: 50.0 mg/kg/injection, schedule: Q01DX009 (ip), vehicle: Klucel (hydroxypropylcellulose) (HPC)
[13] = dose: 100.0 mg/kg/injection, schedule: Q01DX009 (ip), vehicle: Klucel (hydroxypropylcellulose) (HPC)
[14] = dose: 200.0 mg/kg/injection, schedule: Q01DX009 (ip), vehicle: Klucel (hydroxypropylcellulose) (HPC)
[15] = dose: 100.0 mg/kg/injection, schedule: Q04DX003 (ip), vehicle: saline with Tween-80
[16] = dose: 200.0 mg/kg/injection, schedule: Q04DX003 (ip), vehicle: saline with Tween-80
[17] = dose: 400.0 mg/kg/injection, schedule: Q04DX003 (ip), vehicle: saline with Tween-80
[18] = dose: 25.0 mg/kg/injection, schedule: Q01DX009 (ip), vehicle: saline
[19] = dose: 50.0 mg/kg/injection, schedule: Q01DX009 (ip), vehicle: saline
[20] = dose: 100.0 mg/kg/injection, schedule: Q01DX009 (ip), vehicle: saline
[21] = dose: 400.0 mg/kg/injection, schedule: Q04DX002 (ip), vehicle: saline with Tween-80
[22] = dose: 100.0 mg/kg/injection, schedule: Q01DX001 (ip), vehicle: Klucel (hydroxypropylcellulose) (HPC)
[23] = dose: 100.0 mg/kg/injection, schedule: Q04DX002 (ip), vehicle: saline with Tween-80
[24] = dose: 200.0 mg/kg/injection, schedule: Q04DX002 (ip), vehicle: saline with Tween-80

Measured: T/C

O=c1cc(N=Nc2ccc(O)cc2)[nH]c(=O)[nH]1
inactive: dose: 100.0 mg/kg/injection, schedule: Q01DX009 (ip), vehicle: water 94 % of control | dose: 100.0 mg/kg/injection, schedule: Q04DX003 (ip), vehicle: water 103 % of control | dose: 200.0 mg/kg/injection, schedule: Q01DX009 (ip), vehicle: water 94 % of control | dose: 200.0 mg/kg/injection, schedule: Q04DX003 (ip), vehicle: water 103 % of control | dose: 400.0 mg/kg/injection, schedule: Q01DX009 (ip), vehicle: water 92 % of control | dose: 400.0 mg/kg/injection, schedule: Q04DX003 (ip), vehicle: water 104 % of control

CC(=O)Nc1ccc(S(=O)(=O)F)cc1[N+](=O)[O-]
inactive: [1] 93 % of control | [2] 97 % of control | [3] 114 % of control | [4] 93 % of control | [5] 101 % of control | [6] 93 % of control

O=C1C(c2ccccc2)=C(c2ccccc2)C2(c3ccccc3)CN=NC12c1ccccc1 (stereo unspecified)
inactive: [2] 90 % of control | [4] 94 % of control | [6] 92 % of control

CC(O)COCCOCCO (stereo unspecified)
inactive: [7] 96 % of control | [8] 99 % of control | [9] 94 % of control

CN(C)NCC(O)COc1ccc(Cl)cc1 (stereo unspecified)
inactive: [10] 103 % of control | [11] 100 % of control

O=C(O)CCc1nc2ccccc2c(=O)[nH]1
inactive: [12] 100 % of control | [13] 100 % of control | [14] 100 % of control

O=c1c2cnc3c4cccnc4ccc3c2[nH]n1-c1ccccc1
inactive: [10] 105 % of control | [11] 109 % of control | dose: 400.0 mg/kg/injection, schedule: Q04DX002 (ip), vehicle: Klucel (hydroxypropylcellulose) (HPC) 98 % of control

CSc1nc(N)nc2c1ncn2CCCl
inactive: [7] 103 % of control | [8] 96 % of control | [9] 97 % of control

COc1ccc(C=NCCN=Cc2ccc(OC)cc2)cc1
inactive: [12] 88 % of control | [13] 106 % of control | [2] 86 % of control | [14] 104 % of control | [6] 90 % of control

COc1c(C)c(C)c(OC(C)=O)c(C)c1Br
inactive: [15] 96 % of control | [16] 89 % of control | [17] 91 % of control

COc1cc2c(cc1O)C(=O)CCCC2
inactive: [1] 94 % of control | [2] 94 % of control | [3] 103 % of control | [4] 92 % of control | [5] 90 % of control | [6] 100 % of control

O=C(COc1ccc(Cl)cc1)OCCO
inactive: dose: 100.0 mg/kg/injection, schedule: Q01DX001 (ip), vehicle: gum acacia 90 % of control | dose: 200.0 mg/kg/injection, schedule: Q01DX001 (ip), vehicle: gum acacia 96 % of control | dose: 400.0 mg/kg/injection, schedule: Q01DX001 (ip), vehicle: gum acacia 95 % of control

COc1ccc(NC(=O)C2C3C=CC(C3)C2C(=O)Nc2ccc(OC)cc2)cc1 (stereo unspecified)
inactive: [15] 100 % of control | [16] 87 % of control | [17] 91 % of control

CC(=O)Nc1ccc(OC(=O)c2cccc([N+](=O)[O-])c2)cc1
inactive: dose: 100.0 mg/kg/injection, schedule: Q01DX001 (ip), vehicle: saline 107 % of control | dose: 200.0 mg/kg/injection, schedule: Q01DX001 (ip), vehicle: saline 101 % of control | dose: 400.0 mg/kg/injection, schedule: Q01DX001 (ip), vehicle: saline 104 % of control

Cc1ccc(NC(=O)OCCN(C)C)cc1NC(=O)OCCN(C)C
inactive: dose: 12.5 mg/kg/injection, schedule: Q01DX009 (ip), vehicle: saline 98 % of control and 97 % of control | [18] 98 % of control | [19] 101 % of control and 92 % of control | [20] 102 % of control

C[Si](C)(C)c1cccc(-c2ccccc2)c1
inactive: dose: 25.6 mg/kg/injection, schedule: Q04DX002 (ip), vehicle: saline with Tween-80 93 % of control | dose: 64.0 mg/kg/injection, schedule: Q04DX002 (ip), vehicle: saline with Tween-80 104 % of control | [15] 101 % of control | dose: 160.0 mg/kg/injection, schedule: Q04DX002 (ip), vehicle: saline with Tween-80 97 % of control | [16] 92 % of control | [21] 97 % of control | [17] 101 % of control

O=C(N/N=C\c1ccc(Cl)cc1Cl)c1ccco1
inactive: dose: 100.0 mg/kg/injection, schedule: Q01DX001 (ip), vehicle: other 90 % of control | dose: 200.0 mg/kg/injection, schedule: Q01DX001 (ip), vehicle: other 96 % of control | dose: 400.0 mg/kg/injection, schedule: Q01DX001 (ip), vehicle: other 93 % of control

O=[N+]([O-])c1ccc(N2CCCCC2)c([N+](=O)[O-])c1
inactive: [18] 96 % of control | [19] 102 % of control | [20] 96 % of control | dose: 200.0 mg/kg/injection, schedule: Q01DX009 (ip), vehicle: saline 98 % of control | dose: 400.0 mg/kg/injection, schedule: Q01DX009 (ip), vehicle: saline 96 % of control

N#CC(c1ccccc1)N1CCOCC1 (stereo unspecified)
inactive: [2] 91 % of control | [4] 96 % of control | [6] 95 % of control

CCCC[N+](C)(C)CCCOC(=O)C1C2CC3OC(=O)C1C3C2 (stereo unspecified)
inactive: dose: 12.5 mg/kg/injection, schedule: Q01DX003 (ip), vehicle: saline with Tween-80 97 % of control | dose: 25.0 mg/kg/injection, schedule: Q01DX003 (ip), vehicle: saline with Tween-80 100 % of control | dose: 50.0 mg/kg/injection, schedule: Q01DX003 (ip), vehicle: saline with Tween-80 97 % of control | dose: 50.0 mg/kg/injection, schedule: Q04DX003 (ip), vehicle: saline with Tween-80 101 % of control | [15] 103 % of control

C1CCC2[N-]CC3CCCCC3[N-]CC3CCCCC3[N-]CC3CCCCC3[N-]CC2C1.[Cu] (stereo unspecified)
inactive: dose: 20.0 mg/kg/injection, schedule: Q01DX001 (ip), vehicle: Klucel (hydroxypropylcellulose) (HPC) 110 % of control | dose: 40.0 mg/kg/injection, schedule: Q01DX001 (ip), vehicle: Klucel (hydroxypropylcellulose) (HPC) 117 % of control | [22] 116 % of control

c1ccc(Cc2cc(-c3ccccc3)n[nH]2)cc1
inactive: [22] 100 % of control | [13] 110 % of control | [2] 100 % of control | dose: 200.0 mg/kg/injection, schedule: Q01DX001 (ip), vehicle: Klucel (hydroxypropylcellulose) (HPC) 101 % of control | [14] 96 % of control | [4] 93 % of control | dose: 400.0 mg/kg/injection, schedule: Q01DX001 (ip), vehicle: Klucel (hydroxypropylcellulose) (HPC) 103 % of control | dose: 400.0 mg/kg/injection, schedule: Q01DX009 (ip), vehicle: Klucel (hydroxypropylcellulose) (HPC) 100 % of control | [6] 98 % of control

CC(C)(C)NC(=O)NC1CCCCC1
inactive: dose: 100.0 mg/kg/injection, schedule: Q01DX001 (ip), vehicle: saline with Tween-80 95 % of control | dose: 100.0 mg/kg/injection, schedule: Q01DX009 (ip), vehicle: saline with Tween-80 94 % of control and 110 % of control | [23] 97 % of control and 100 % of control | [7] 101 % of control | dose: 200.0 mg/kg/injection, schedule: Q01DX001 (ip), vehicle: saline with Tween-80 98 % of control | dose: 200.0 mg/kg/injection, schedule: Q01DX009 (ip), vehicle: saline with Tween-80 100 % of control and 87 % of control | [24] 97 % of control | [8] 111 % of control | dose: 400.0 mg/kg/injection, schedule: Q01DX001 (ip), vehicle: saline with Tween-80 95 % of control | dose: 400.0 mg/kg/injection, schedule: Q01DX009 (ip), vehicle: saline with Tween-80 100 % of control and 115 % of control | [21] 94 % of control and 90 % of control | [9] 101 % of control

CSc1n[nH]c(N=[N+]=[N-])n1
inactive: [23] 104 % of control | [24] 115 % of control | [21] 104 % of control
